Assay results published in ChEMBL document CHEMBL6127085, “Design, synthesis and evaluation of novel LpxC inhibitors containing a hydrazone moiety as Gram-negative antibacterial agents” (Eur J Med Chem, 2024).
Converted amounts (≈) assume the structure as drawn.

Tests used:
[1] = Plasma protein binding in mouse at 1 uM incubated for 6 hrs by LC-MS/MS analysis; format: ADME, cell-free; conditions: read-out: PPB (converted)
[2] = Stability in mouse plasma at 1 uM incubated for 6 hrs by LC-MS/MS analysis; format: ADME, cell-free; conditions: read-out: Stability
[3] = system: Escherichia coli; assay: Antibacterial activity against Escherichia coli ATCC25922 assessed as reduction in bacterial growth measured after 18 to 24 hrs by CLSI protocol based method; format: functional; conditions: time 18-24 hrs
[4] = system: Pseudomonas aeruginosa; assay: Antibacterial activity against Pseudomonas aeruginosa ATCC27853 assessed as reduction in bacterial growth measured after 18 to 24 hrs by CLSI protocol based method; format: functional; conditions: time 18-24 hrs
[5] = system: Pseudomonas aeruginosa; assay: Antibacterial activity against Pseudomonas aeruginosa clinical isolate PAE22-1 assessed as reduction in bacterial growth measured after 18 to 24 hrs by CLSI protocol based method; format: functional; conditions: time 18-24 hrs
[6] = system: Klebsiella pneumoniae; assay: Antibacterial activity against Klebsiella pneumoniae ATCC700603 assessed as reduction in bacterial growth measured after 18 to 24 hrs by CLSI protocol based method; format: functional; conditions: time 18-24 hrs
[7] = system: Klebsiella pneumoniae; assay: Antibacterial activity against Klebsiella pneumoniae clinical isolate KPN+22-1 assessed as reduction in bacterial growth measured after 18 to 24 hrs by CLSI protocol based method; format: functional; conditions: time 18-24 hrs
[8] = Metabolic stability in human liver microsomes assessed as half life at 1 uM preincubated for 5 mins followed by NADPH addition and measured after 5 to 60 mins by LC-MS analysis; format: ADME, Microsome; conditions: microsomes, 1 µM, time 10-65 min
[9] = Metabolic stability in rat liver microsomes assessed as half life at 1 uM preincubated for 5 mins followed by NADPH addition and measured after 5 to 60 mins by LC-MS analysis; format: ADME, Microsome; conditions: microsomes, 1 µM, time 10-65 min
[10] = Metabolic stability in mouse liver microsomes assessed as half life at 1 uM preincubated for 5 mins followed by NADPH addition and measured after 5 to 60 mins by LC-MS analysis; format: ADME, Microsome; conditions: microsomes, 1 µM, time 10-65 min
[11] = Metabolic stability in rat liver microsomes assessed as intrinsic clearance at 1 uM preincubated for 5 mins followed by NADPH addition and measured after 5 to 60 mins by LC-MS analysis; format: ADME, Microsome; conditions: microsomes, 1 µM, time 10-65 min
[12] = Metabolic stability in mouse liver microsomes assessed as intrinsic clearance at 1 uM preincubated for 5 mins followed by NADPH addition and measured after 5 to 60 mins by LC-MS analysis; format: ADME, Microsome; conditions: microsomes, 1 µM, time 10-65 min
[13] = Intrinsic clearance in human; format: ADME; conditions: read-out: CLH
[14] = Intrinsic clearance in rat; format: ADME; conditions: read-out: CLH
[15] = Intrinsic clearance in mouse; format: ADME, organism-based; conditions: read-out: CLH
[16] = system: HepG2; assay: Cytotoxicity against human HepG2 cells assessed as inhibition of cell growth measured after 48 hrs by MTT assay; format: functional, cell-based; conditions: HepG2, 48 h
[17] = Plasma protein binding in human assessed as unbound fraction at 1 uM incubated for 6 hrs by LC-MS/MS analysis; format: ADME, cell-free
[18] = Plasma protein binding in human at 1 uM incubated for 6 hrs by LC-MS/MS analysis; format: ADME, cell-free; conditions: read-out: PPB
[19] = Plasma protein binding in human assessed as drug recovery at 1 uM incubated for 6 hrs by LC-MS/MS analysis; format: ADME, cell-free; conditions: read-out: Drug recovery
[20] = Stability in human plasma at 1 uM incubated for 6 hrs by LC-MS/MS analysis; format: ADME, cell-free; conditions: read-out: Stability
[21] = Plasma protein binding in rat assessed as unbound fraction at 1 uM incubated for 6 hrs by LC-MS/MS analysis; format: ADME, cell-free
[22] = Plasma protein binding in rat at 1 uM incubated for 6 hrs by LC-MS/MS analysis; format: ADME, cell-free; conditions: read-out: PPB (converted)
[23] = Plasma protein binding in rat assessed as drug recovery at 1 uM incubated for 6 hrs by LC-MS/MS analysis; format: ADME, cell-free; conditions: read-out: Drug recovery
[24] = Stability in rat plasma at 1 uM incubated for 6 hrs by LC-MS/MS analysis; format: ADME, cell-free; conditions: read-out: Stability
[25] = Plasma protein binding in mouse assessed as unbound fraction at 1 uM incubated for 6 hrs by LC-MS/MS analysis; format: ADME, cell-free
[26] = Plasma protein binding in mouse assessed as drug recovery at 1 uM incubated for 6 hrs by LC-MS/MS analysis; format: ADME, cell-free; conditions: read-out: Drug recovery
[27] = Half life in male Sprague-Dawley rat at 10 mg/kg, IG measured upto 24 hrs by LC-MS analysis; format: ADME, organism-based; conditions: in vivo, po
[28] = Tmax in male Sprague-Dawley rat at 10 mg/kg, IG measured upto 24 hrs by LC-MS analysis; format: ADME, organism-based; conditions: in vivo, po
[29] = Cmax in male Sprague-Dawley rat at 10 mg/kg, IG measured upto 24 hrs by LC-MS analysis; format: ADME, organism-based; conditions: in vivo, po
[30] = AUC (0 to t) in male Sprague-Dawley rat at 10 mg/kg, IG measured upto 24 hrs by LC-MS analysis; format: ADME, organism-based; conditions: in vivo, po
[31] = MRT (0 to t) in male Sprague-Dawley rat at 10 mg/kg, IG measured upto 24 hrs by LC-MS analysis; format: ADME, organism-based; conditions: in vivo, po
[32] = Oral bioavailability in male Sprague-Dawley rat at 10 mg/kg, IG measured upto 24 hrs by LC-MS analysis; format: ADME, organism-based; conditions: in vivo
[33] = Half life in male Sprague-Dawley rat at 1 mg/kg, iv measured upto 24 hrs by LC-MS analysis; format: ADME, organism-based; conditions: in vivo
[34] = AUC (0 to t) in male Sprague-Dawley rat at 1 mg/kg, iv measured upto 24 hrs by LC-MS analysis; format: ADME, organism-based; conditions: in vivo
[35] = Clearance in male Sprague-Dawley rat at 1 mg/kg, iv measured upto 24 hrs by LC-MS analysis; format: ADME, organism-based; conditions: in vivo
[36] = MRT (0 to t) in male Sprague-Dawley rat at 1 mg/kg, iv measured upto 24 hrs by LC-MS analysis; format: ADME, organism-based; conditions: in vivo
[37] = Volume of distribution at steady state in male Sprague-Dawley rat at 1 mg/kg, iv measured upto 24 hrs by LC-MS analysis; format: ADME, organism-based; conditions: in vivo, read-out: Vdss
[38] = molecular target: T1, Cytochrome P450 1A2 (Homo sapiens, UniProt P05177); assay: Inhibition of CYP1A2 in human liver microsomes using alpha-naphthoflavone […] preincubated for 5 mins followed by substrate addition ande measured after 120 mins in presence of NADPH by LC-MS/MS analysis; format: ADME, Microsome
T1 sequence (P05177 whole entry): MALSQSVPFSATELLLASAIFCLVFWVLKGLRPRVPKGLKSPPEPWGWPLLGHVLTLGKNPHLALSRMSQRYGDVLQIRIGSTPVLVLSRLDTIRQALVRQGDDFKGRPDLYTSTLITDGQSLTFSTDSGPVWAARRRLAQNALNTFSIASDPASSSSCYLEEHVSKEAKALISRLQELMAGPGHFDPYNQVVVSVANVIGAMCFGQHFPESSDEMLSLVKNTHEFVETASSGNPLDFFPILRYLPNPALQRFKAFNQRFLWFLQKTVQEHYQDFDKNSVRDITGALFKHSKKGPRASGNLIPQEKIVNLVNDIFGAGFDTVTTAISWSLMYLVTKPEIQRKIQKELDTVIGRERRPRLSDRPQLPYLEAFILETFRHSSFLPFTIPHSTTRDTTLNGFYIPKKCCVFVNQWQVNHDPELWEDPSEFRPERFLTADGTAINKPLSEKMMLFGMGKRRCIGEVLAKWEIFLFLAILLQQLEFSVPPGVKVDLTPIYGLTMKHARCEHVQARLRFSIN

[39] = molecular target: Cytochrome P450 2C9 (Homo sapiens, UniProt P11712); assay: Inhibition of CYP2C9 in human liver microsomes using sulfaphenazolum […] preincubated for 5 mins followed by substrate addition ande measured after 120 mins in presence of NADPH by LC-MS/MS analysis; format: ADME, Microsome
[40] = molecular target: Cytochrome P450 2C19 (Homo sapiens, UniProt P33261); assay: Inhibition of CYP2C19 in human liver microsomes using nootkatone […] preincubated for 5 mins followed by substrate addition ande measured after 120 mins in presence of NADPH by LC-MS/MS analysis; format: ADME, Microsome
[41] = molecular target: Cytochrome P450 2D6 (Homo sapiens, UniProt P10635); assay: Inhibition of CYP2D6 in human liver microsomes using quinidine […] preincubated for 5 mins followed by substrate addition ande measured after 120 mins in presence of NADPH by LC-MS/MS analysis; format: ADME, Microsome
[42] = molecular target: Cytochrome P450 3A4 (Homo sapiens, UniProt P08684); assay: Inhibition of CYP3A4 in human liver microsomes using ketoconazole […] preincubated for 5 mins followed by substrate addition ande measured after 120 mins in presence of NADPH by LC-MS/MS analysis; format: ADME, Microsome
[43] = Solubility of the compound at pH 4.0 by LC-MS/MS analysis; format: physicochemical; conditions: buffer
[44] = Solubility of the compound at pH 6.8 by LC-MS/MS analysis; format: physicochemical; conditions: buffer
[45] = Solubility of the compound at pH 9.0 by LC-MS/MS analysis; format: physicochemical; conditions: buffer

Cytochrome P450 2C9, sequence (P11712 whole entry): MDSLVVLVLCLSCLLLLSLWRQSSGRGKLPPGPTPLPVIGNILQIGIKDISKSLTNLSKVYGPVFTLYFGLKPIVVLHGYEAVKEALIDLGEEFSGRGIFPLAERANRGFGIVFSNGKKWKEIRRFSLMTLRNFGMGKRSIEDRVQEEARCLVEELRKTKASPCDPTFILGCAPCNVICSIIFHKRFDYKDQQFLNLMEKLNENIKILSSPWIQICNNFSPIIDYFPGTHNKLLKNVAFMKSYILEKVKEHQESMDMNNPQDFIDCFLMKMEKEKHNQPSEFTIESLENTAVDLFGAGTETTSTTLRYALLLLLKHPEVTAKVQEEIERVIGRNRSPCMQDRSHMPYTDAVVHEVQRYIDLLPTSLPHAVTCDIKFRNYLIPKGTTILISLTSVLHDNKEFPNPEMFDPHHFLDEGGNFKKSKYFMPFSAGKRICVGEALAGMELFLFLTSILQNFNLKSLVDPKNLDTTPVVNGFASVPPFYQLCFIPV
Cytochrome P450 2D6, sequence (P10635 whole entry): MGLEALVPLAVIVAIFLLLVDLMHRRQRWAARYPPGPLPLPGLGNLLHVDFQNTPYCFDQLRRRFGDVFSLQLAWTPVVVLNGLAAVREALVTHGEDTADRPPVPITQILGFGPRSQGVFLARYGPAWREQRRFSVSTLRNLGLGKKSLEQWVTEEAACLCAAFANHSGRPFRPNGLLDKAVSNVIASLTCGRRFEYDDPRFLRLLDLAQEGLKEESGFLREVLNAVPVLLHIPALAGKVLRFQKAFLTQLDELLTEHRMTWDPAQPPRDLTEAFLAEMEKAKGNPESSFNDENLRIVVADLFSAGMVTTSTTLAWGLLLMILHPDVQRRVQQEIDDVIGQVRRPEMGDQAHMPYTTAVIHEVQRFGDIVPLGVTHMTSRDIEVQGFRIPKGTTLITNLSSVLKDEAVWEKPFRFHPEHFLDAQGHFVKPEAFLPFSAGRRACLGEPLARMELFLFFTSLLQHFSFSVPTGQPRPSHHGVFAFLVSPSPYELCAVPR
Cytochrome P450 3A4, sequence (P08684 whole entry): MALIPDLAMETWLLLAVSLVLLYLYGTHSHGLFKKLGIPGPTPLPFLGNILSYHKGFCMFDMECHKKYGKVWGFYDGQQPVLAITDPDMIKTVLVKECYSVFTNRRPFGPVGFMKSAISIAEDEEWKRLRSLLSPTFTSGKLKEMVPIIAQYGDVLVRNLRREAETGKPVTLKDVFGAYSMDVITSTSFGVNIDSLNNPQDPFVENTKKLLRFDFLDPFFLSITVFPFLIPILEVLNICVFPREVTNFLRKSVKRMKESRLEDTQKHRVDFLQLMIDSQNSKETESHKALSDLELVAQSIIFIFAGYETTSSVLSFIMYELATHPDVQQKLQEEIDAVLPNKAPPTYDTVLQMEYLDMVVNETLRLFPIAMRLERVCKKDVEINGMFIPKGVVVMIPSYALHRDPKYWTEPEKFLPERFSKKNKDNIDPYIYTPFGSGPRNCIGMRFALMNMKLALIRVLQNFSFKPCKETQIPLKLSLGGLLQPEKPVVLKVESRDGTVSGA
Cytochrome P450 2C19, sequence (P33261 whole entry): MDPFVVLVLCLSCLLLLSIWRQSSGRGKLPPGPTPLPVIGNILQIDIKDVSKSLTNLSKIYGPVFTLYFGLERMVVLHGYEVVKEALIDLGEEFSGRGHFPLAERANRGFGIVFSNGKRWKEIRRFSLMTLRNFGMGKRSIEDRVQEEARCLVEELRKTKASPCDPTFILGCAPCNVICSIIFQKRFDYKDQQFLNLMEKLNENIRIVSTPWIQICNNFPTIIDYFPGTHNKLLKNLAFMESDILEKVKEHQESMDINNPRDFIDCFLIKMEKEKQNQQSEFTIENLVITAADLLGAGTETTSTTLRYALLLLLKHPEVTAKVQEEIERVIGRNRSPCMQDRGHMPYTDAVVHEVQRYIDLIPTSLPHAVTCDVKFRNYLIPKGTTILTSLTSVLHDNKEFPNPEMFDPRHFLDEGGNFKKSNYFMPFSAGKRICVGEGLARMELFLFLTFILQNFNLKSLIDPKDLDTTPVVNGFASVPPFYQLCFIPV

fraction unbound at 6 h, 1 µM [1]: 0.002 | remaining at 6 h, 1 µM [2]: 111% | MIC [3]: 0.06 µg/mL (≈ 0.138 µM) | MIC [4]: > 64 µg/mL | MIC [5]: 2 µg/mL (≈ 4.6 µM) | MIC [6]: 8 µg/mL (≈ 18.4 µM) | MIC [7]: 0.25 µg/mL (≈ 0.575 µM) | t1/2 [8]: 5.62 h | t1/2 [9]: 4.14 min | t1/2 [10]: 3.91 min | CLH [11]: 9.76 µL/min/mg | CLH [12]: 17.6 µL/min/mg | CLint scaled [13]: 165 mL/min/kg | CLint scaled [14]: 8.59 mL/min/kg | CLint scaled [15]: 33.8 mL/min/kg | fraction unbound at 6 h, 1 µM [17]: 0.0013 | fraction unbound at 6 h, 1 µM [18]: 0.001 | recovery at 6 h, 1 µM [19]: 103% | remaining at 6 h, 1 µM [20]: 113% | fraction unbound at 6 h, 1 µM [21]: 0.0016 | fraction unbound at 6 h, 1 µM [22]: 0.002 | recovery at 6 h, 1 µM [23]: 102% | remaining at 6 h, 1 µM [24]: 109% | fraction unbound at 6 h, 1 µM [25]: 0.00232 | recovery at 6 h, 1 µM [26]: 110% | half-life [27]: 2.5 h | Tmax [28]: 4 h | Cmax [29]: 218 ng/mL | AUC(0-t) at 24 h [30]: 1050 ng·h/mL | MRT last at 24 h [31]: 3.41 h | bioavailability [32]: 13.3% | half-life [33]: 1.09 h | AUC(0-t) at 24 h [34]: 791 ng·h/mL | clearance [35]: 20.6 mL/min/kg | MRT last at 24 h [36]: 1.31 h | Vd [37]: 1.8 L/kg | IC50 [38]: > 30 µM | IC50 [39]: > 30 µM | IC50 [40]: > 30 µM | IC50 [41]: > 30 µM | IC50 [42]: > 30 µM | solubility [43]: 4.8 µM (≈ 2.09 µg/mL) | solubility [44]: 9.41 µM (≈ 4.09 µg/mL) | solubility [45]: 101 µM (≈ 43.9 µg/mL)
SMILES: C[C@@H](O)[C@H](NC(=O)c1ccc(C#Cc2ccc(/C=N/N3CCCC3)cc2)cc1)C(=O)NO
IC50 [16]: > 30 µM
